Patent US20250295639A1, “METHODS FOR TREATING HEART DISEASES” (Cytokinetics, Incorporated, priority 2024, published 2025)
Values joined by “and” are separate entries in the source; they are usually repeats but may differ in a detail not shown here. Equal entries are not always repeated.

Key:
[1] = system: patients with symptomatic oHCM; test: SEQUOIA-HCM secondary analysis: clinical response / responder analyses (NYHA class, KCCQ-CSS, hemodynamic response, exercise capacity); type: in vivo, human
Excerpt: A secondary objective of this trial was to evaluate the effect of aficamten on patient health status, as determined by changes in the Kansas City Cardiomyopathy Questionnaire-Clinical Summary Score (KCCQ-CSS) from baseline to Week 12 and Week 24. A further secondary objective of this trial was to evaluate the effect of aficamten on New York Heart Association (NYHA) Functional Classification, as determined by the proportion of patients with ≥1 class improvement in NYHA Functional Class from baseline to Week 12 and Week 24. An exploratory objective of this trial was to evaluate the effect of aficamten on exercise capacity and functional class, as determined by comparing with baseline, the number of patients at Week 24 achieving either (1) change from baseline of ≥1.5 mL/kg/min in pVO2 AND ≥1 class improvement in NYHA Functional Class; or (2) Change from baseline of ≥3.0 mL/kg/min in pVO2 AND no worsening of NYHA Functional Class. A further exploratory objective of this trial was to evaluate the effect of aficamten on patient response over time, as determined by (1) […]; (2) proportion of patients with resting LVOT-G<30 mmHg, post-Valsalva LVOT-G<50 mmHg, […]; and (3) proportion of patients with resting LVOT-G<30 mmHg, post-Valsalva LVOT-G<50 mmHg, […] Secondary Analysis of the Results of the SEQUOIA-HCM Study. In a sub-analysis of the results of Example 8 (i.e, the results of the SEQUOIA-HCM Study) we sought to comprehensively characterize the broad clinical impact of aficamten with respect to responder analyses across a number of clinically relevant, patient-centric outcome domains. […] For patients with missing data, the last available observation (week 8 to week 20) was used. Patients with no available data on or after week 8 were classified as not meeting the efficacy criteria. Patients were then classified according to the number of efficacy outcome definitions that they met. Baseline characteristics were summarized using means and standard deviations or median and interquartile for continuous normal and skewed variables, as well as counts and percentages for categorical variables. These characteristics were compared across groups using trend tests (linear regression, chi-squared tests of trend, and Cuzick's non-parametric trend tests). Proportions of patients meeting each efficacy outcome definition were compared between treatment groups using chi-squared tests, and linear regression was used to assess the treatment effect of aficamten vs placebo on change in efficacy outcomes while also adjusting for baseline value, CPET modality at baseline and beta blocker use at baseline. No adjustments were made for multiple comparisons. Two-sided p-values less than 0.05 were considered statistically significant.

[2] = system: patients with symptomatic oHCM; parameters: species or system human; conditions: in vivo
Experimental: Patients enrolled in this trial were required to have an LVEF≥60% prior to randomization, as confirmed by the central echocardiography laboratory. […] Dose escalation was performed on an individualized basis only if the following criteria were met: both post-Valsalva LVOT-G≥30 mmHg and biplane LVEF≥55%. Importantly, in contrast to CY 6021, the lower limit of LVEF for dose escalations was increased from 50% to 55% to provide a safety margin from the threshold of LVEF (<50%) that would trigger dose reduction. If the LVEF was <50% at any time, the dose of aficamten was down-titrated, and if the LVEF is <40% at any time, aficamten was temporarily interrupted.
To evaluate the safety and tolerability profile of aficamten in patients with symptomatic oHCM, the following were recorded: (1) incidence of reported major adverse cardiac events (cardiovascular [CV] death, cardiac arrest, non-fatal stroke, non-fatal myocardial infarction, CV hospitalization); (2) incidence of new onset persistent atrial fibrillation; (3) incidence of appropriate implantable cardiac defibrillator (ICD) discharges and aborted sudden cardiac death; (4) incidence of left ventricular ejection fraction (LVEF)<50%; and (5) incidence of treatment emergent adverse events.

[3] = 142 patients treated with aficamten
[4] = of the 101 aficamten symptomatic responders

CCc1nc(-c2ccc3c(c2)CC[C@H]3NC(=O)c2cnn(C)c2)no1 [aficamten, (R)—N-(5-(5-ethyl-1,2,4-oxadiazol-3-yl)-2,3-dihydro-1H-inden-1-yl)-1-methyl-1H-pyrazole-4-carboxamide]
patients with moderate to large KCCQ-CSS improvement of ≥10 to <20 ([1]; 142 patients on aficamten): 27%
patients with no change or a decrease in KCCQ-CSS score (<5 points) ([1]; 142 patients on aficamten): 37%
patients with small KCCQ-CSS improvement of ≥5 to <10 ([1]; 142 patients on aficamten): 13%
patients with very large KCCQ-CSS change of ≥20 ([1]; 142 patients on aficamten): 22%
patients improved from NYHA class II to I [1, 3]: 39%
patients improved from NYHA class III to I [1, 3]: 11%
patients improved from NYHA class III to II [1, 3]: 9%
patients with no change in NYHA class [1, 3]: 38%
patients worsened from NYHA class II to class III [1, 3]: 2%
>1.5 mL/kg/min increase in pVO2 and ≥1 NYHA class improvement or ≥3.0 mL/kg/min increase in pVO2 and no worsening of NYHA class ([1]; Aficamten (N = 142)): 60 (42) n (%)
≥1.5 mL/kg/min increase in pVO2 and ≥1 NYHA class improvement ([1]; Aficamten (N = 142)): 44 (31) n (%)
≥3.0 mL/kg/min increase in pVO2 and no worsening of NYHA class ([1]; Aficamten (N = 142)): 37 (26) n (%)
≥3.0 mL/kg/min increase in pVO2 and ≥1 NYHA class improvement ([1]; Aficamten (N = 142)): 21 (15) n (%)
responder endpoint, difference vs. placebo ([1]; Week 24): 28.7%
responder endpoint, number needed to treat (NNT) ([1]; Week 24): 3
patients with improvement of ≥1 NYHA functional class and/or ≥10 point increase in KCCQ-CSS (symptomatic response) ([1]; aficamten group, week 2): 36%
patients with complete hemodynamic response (rest gradient <30 mmHg and Valsalva gradient <50 mmHg) ([1]; aficamten group, week 8): 70%
patients with improvement of ≥1 NYHA functional class and/or ≥10 point increase in KCCQ-CSS (symptomatic response) ([1]; aficamten group, week 8): 58%
patients achieving ≥1 of the 4 prespecified clinical response measures ([1]; aficamten group, week 24): 97%
patients improved in 2 clinical response measures ([1]; aficamten group, week 24): 26%
patients improved in 3 clinical response measures ([1]; aficamten group, week 24): 39%
patients improved in all 4 clinical response measures ([1]; aficamten group, week 24): 23%
patients who achieved one clinical response measure ([1]; aficamten group, week 24): 9%
patients with improvement in exercise capacity, pVO2 of ≥1.5 mL/kg/min ([1]; aficamten group, week 24): 47%
patients with improvement of ≥1 NYHA functional class and/or ≥10 point increase in KCCQ-CSS (symptomatic response) ([1]; aficamten group, week 24): 71%
patients meeting responder endpoint (pVO2 ≥1.5 mL/kg/min and ≥1 NYHA improvement, or pVO2 ≥3.0 mL/kg/min and no worsening in NYHA) ([1]; aficamten, Week 24): 42% and 42.3%
patients who achieved pVO2 of ≥1.5 mL/kg/min and ≥1 improvement in NYHA class ([1]; aficamten, Week 24): 31%
patients with pVO2 ≥3.0 mL/kg/min and no worsening in NYHA ([1]; aficamten, Week 24): 26%
patients who resolved their symptoms completely (NYHA class I) ([1]; end of the treatment period): close to half of patients
symptomatic responders with improvement in both NYHA and KCCQ [1, 4]: 51%
symptomatic responders with ≤10 point improvement in KCCQ but ≥1 improvement in NYHA functional class [1, 4]: 31%
symptomatic responders with ≥10 point improvement in KCCQ-CSS and no improvement in NYHA class [1, 4]: 18%
Common Rate Difference (vs. Placebo) ([1]; pVO2/NYHA composite responder): 29
instances of per protocol down-titration [2]: no instances
